Assay results reported in patent publication US20220298163A1, “BTK INHIBITORS WITH IMPROVED DUAL SELECTIVITY” (BEIGENE, LTD., priority 2017, published 2022).

Experiments:
[1] = biological target: T1, Tec (Homo sapiens, UniProt P42680); assay: Biochemical kinase selectivity: IC50 determination of Tec; details: for IC50: TR-FRET, 280 μM ATP; for Fold of Tec/Btk: ratio of IC50 values
T1 sequence (P42680 1-631): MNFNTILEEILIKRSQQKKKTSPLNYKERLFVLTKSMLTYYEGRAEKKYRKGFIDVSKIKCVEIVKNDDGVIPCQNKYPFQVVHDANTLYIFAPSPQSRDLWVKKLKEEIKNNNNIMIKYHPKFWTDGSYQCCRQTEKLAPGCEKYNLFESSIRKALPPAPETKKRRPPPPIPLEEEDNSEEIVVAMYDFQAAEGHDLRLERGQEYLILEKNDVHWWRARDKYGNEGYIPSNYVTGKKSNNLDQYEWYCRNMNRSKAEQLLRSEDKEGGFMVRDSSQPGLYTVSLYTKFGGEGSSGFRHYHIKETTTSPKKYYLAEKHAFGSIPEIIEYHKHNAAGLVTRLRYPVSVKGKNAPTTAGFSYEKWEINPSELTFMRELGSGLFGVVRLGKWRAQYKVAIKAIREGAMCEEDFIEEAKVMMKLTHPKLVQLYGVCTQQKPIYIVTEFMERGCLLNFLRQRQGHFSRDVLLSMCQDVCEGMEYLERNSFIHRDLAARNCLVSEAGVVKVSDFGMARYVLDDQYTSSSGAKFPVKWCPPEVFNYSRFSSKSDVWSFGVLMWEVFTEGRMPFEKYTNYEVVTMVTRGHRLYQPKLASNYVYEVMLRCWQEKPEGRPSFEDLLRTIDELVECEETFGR

[2] = biological target: T2, Btk kinase (aa2-659, Carna Biosciences) (Homo sapiens, UniProt Q06187); assay: Btk kinase enzymatic assay (TR-FRET); assay type: biochemical; details: for IC50: TR-FRET, 30 μM ATP, compound incubated with kinase 60 minutes
T2 construct: purchased Carna Biosciences
T2 sequence (Q06187 2-659): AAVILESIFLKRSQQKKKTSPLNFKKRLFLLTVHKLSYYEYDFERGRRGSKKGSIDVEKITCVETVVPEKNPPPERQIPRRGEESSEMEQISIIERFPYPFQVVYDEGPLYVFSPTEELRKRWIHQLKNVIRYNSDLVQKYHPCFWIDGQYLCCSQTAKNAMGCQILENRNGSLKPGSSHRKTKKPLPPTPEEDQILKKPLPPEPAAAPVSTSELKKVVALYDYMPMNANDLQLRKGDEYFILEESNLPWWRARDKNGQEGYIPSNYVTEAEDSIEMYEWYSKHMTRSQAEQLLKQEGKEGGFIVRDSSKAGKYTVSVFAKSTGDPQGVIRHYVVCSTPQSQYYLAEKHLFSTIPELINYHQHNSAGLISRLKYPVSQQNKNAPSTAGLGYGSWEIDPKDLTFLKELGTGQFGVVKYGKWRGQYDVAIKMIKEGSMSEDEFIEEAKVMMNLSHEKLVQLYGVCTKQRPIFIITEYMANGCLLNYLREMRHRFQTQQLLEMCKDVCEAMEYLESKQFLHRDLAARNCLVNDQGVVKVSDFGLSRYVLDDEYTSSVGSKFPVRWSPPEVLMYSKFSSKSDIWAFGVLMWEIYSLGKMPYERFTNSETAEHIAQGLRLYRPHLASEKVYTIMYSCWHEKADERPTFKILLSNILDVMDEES

IC50 [1] [nM]	Fold of Tec/Btk [1] [fold]	IC50 [2] [nM]	affinity / inhibitory activity for Btk (in words) [2]	Structure (SMILES)
491	3.5	–	–	C=CC(=O)N1CCC(C2CCNc3c(C(N)=O)c(-c4ccccc4)nn32)CC1 (stereo not drawn) [Example 144, reference compound]
–	–	41	–	C=CC(=O)N1CCC(C2CCNc3c(C(N)=O)c(-c4cc(OC)cc(OC)c4)nn32)CC1 (stereo not drawn) [Example A9, 7-(1-acryloylpiperidin-4-yl)-2-(3,5-dimethoxyphenyl)-4,5,6,7-tetrahydropyrazolo[1,5-a]pyrimidine-3-carboxamide]
–	–	51	–	C=CC(=O)N1CCC(C2CCNc3c(C(N)=O)c(-c4cc(OC)c(-c5ccccc5)c(OC)c4)nn32)CC1 (stereo not drawn) [Example A10, 7-(1-acryloylpiperidin-4-yl)-2-(2,6-dimethoxy-[1,1′-biphenyl]-4-yl)-4,5,6,7-tetrahydropyrazolo[1,5-a]pyrimidine-3-carboxamide]
–	–	> 100	–	C=CC(=O)N1CCC(C2CCNc3c(C(N)=O)c(-c4cc(OCC)c(C)c(OCC)c4)nn32)CC1 (stereo not drawn) [Example A13, 7-(1-acryloylpiperidin-4-yl)-2-(3,5-diethoxy-4-methylphenyl)-4,5,6,7-tetrahydropyrazolo[1,5-a]pyrimidine-3-carboxamide]
> 1000	–	–	–	C=CC(=O)N1CCC(C2CCNc3c(C(N)=O)c(-c4cc(OC)c(OC)c(OC)c4)nn32)CC1 (stereo not drawn) [Example A14, 7-(1-acryloylpiperidin-4-yl)-2-(3,4,5-trimethoxyphenyl)-4,5,6,7-tetrahydropyrazolo[1,5-a]pyrimidine-3-carboxamide]
1000	50	20	poor affinity for Btk	C=CC(=O)N1CCC(C2CCNc3c(C(N)=O)c(-c4cc(Cl)c(OC)c(Cl)c4)nn32)CC1 (stereo not drawn) [Example A15, 7-(1-acryloylpiperidin-4-yl)-2-(3,5-dichloro-4-methoxyphenyl)-4,5,6,7-tetrahydropyrazolo[1,5-a]pyrimidine-3-carboxamide]
–	–	28	–	C=CC(=O)N1CCC(C2CCNc3c(C(N)=O)c(-c4cc(Cl)c(C5CC5)c(Cl)c4)nn32)CC1 (stereo not drawn) [Example A24, 7-(1-acryloylpiperidin-4-yl)-2-(3,5-dichloro-4-cyclopropylphenyl)-4,5,6,7-tetrahydropyrazolo[1,5-a]pyrimidine-3-carboxamide]
–	–	41	–	C=CC(=O)N1CCC(C2CCNc3c(C(N)=O)c(-c4cc(Cl)c(Br)c(OC(F)(F)F)c4)nn32)CC1 (stereo not drawn) [Example A26, 7-(1-acryloylpiperidin-4-yl)-2-(4-bromo-3-chloro-5-(trifluoromethoxy)phenyl)-4,5,6,7-tetrahydropyrazolo[1,5-a]pyrimidine-3-carboxamide]
> 1000	–	18	–	C=CC(=O)N1CCC(C2CCNc3c(C(N)=O)c(-c4cc(OC)c(-c5cc[nH]n5)c(OC)c4)nn32)CC1 (stereo not drawn) [Example A27, 7-(1-acryloylpiperidin-4-yl)-2-(3,5-dimethoxy-4-(1H-pyrazol-3-yl)phenyl)-4,5,6,7-tetrahydropyrazolo[1,5-a]pyrimidine-3-carboxamide]
369	23	16	–	C=CC(=O)N1CCC(C2CCNc3c(C(N)=O)c(-c4cc(OC)c(-c5ccsc5)c(OC)c4)nn32)CC1 (stereo not drawn) [Example A28, 7-(1-acryloylpiperidin-4-yl)-2-(3,5-dimethoxy-4-(thiophen-3-yl)phenyl)-4,5,6,7-tetrahydropyrazolo[1,5-a]pyrimidine-3-carboxamide]
> 1000	–	16	–	C=CC(=O)N1CCC(C2CCNc3c(C(N)=O)c(-c4cc(C)c(C5CC5)c(C)c4)nn32)CC1 (stereo not drawn) [Example A29, 7-(1-acryloylpiperidin-4-yl)-2-(4-cyclopropyl-3,5-dimethylphenyl)-4,5,6,7-tetrahydropyrazolo[1,5-a]pyrimidine-3-carboxamide]
> 1000	–	53	–	C=CC(=O)N1CCC(C2CCNc3c(C(N)=O)c(-c4cc(C)cc(C)c4)nn32)CC1 (stereo not drawn) [Example A30, 7-(1-acryloylpiperidin-4-yl)-2-(3,5-dimethylphenyl)-4,5,6,7-tetrahydropyrazolo[1,5-a]pyrimidine-3-carboxamide]
–	–	> 100	–	C=CC(=O)N1CCC(C2CCNc3c(C(N)=O)c(-c4cc(OC)c(-c5c(C)noc5C)c(OC)c4)nn32)CC1 (stereo not drawn) [Example A31, 7-(1-acryloylpiperidin-4-yl)-2-(4-(3,5-dimethylisoxazol-4-yl)-3-dimethoxyphenyl)-4,5,6,7-tetrahydropyrazolo[1,5-a]pyrimidine-3-carboxamide]
–	–	52	–	C=CC(=O)N1CCC(C2CCNc3c(C(N)=O)c(-c4cc(OC)c(C5CCOCC5)c(OC)c4)nn32)CC1 (stereo not drawn) [Example A32, 7-(1-acryloylpiperidin-4-yl)-2-(3,5-dimethoxy-4-(tetrahydro-2H-pyran-4-yl)phenyl)-4,5,6,7-tetrahydropyrazolo[1,5-a]pyrimidine-3-carboxamide]
253	23	11	–	C=CC(=O)N1CCC(C2CCNc3c(C(N)=O)c(-c4cc(OC)c(C5=CCCCC5)c(OC)c4)nn32)CC1 (stereo not drawn) [Example A40, 7-(1-acryloylpiperidin-4-yl)-2-(2,6-dimethoxy-2′,3′,4′,5′-tetrahydro-[1,1′-biphenyl]-4-yl)-4,5,6,7-tetrahydropyrazolo[1,5-a]pyrimidine-3-carboxamide]
–	–	16	–	C=CC(=O)N1CCC(C2CCNc3c(C(N)=O)c(-c4cc(Cl)c(C5CC5)c(OCC)c4)nn32)CC1 (stereo not drawn) [Example A48, 7-(1-acryloylpiperidin-4-yl)-2-(3-chloro-4-cyclopropyl-5-ethoxyphenyl)-4,5,6,7-tetrahydropyrazolo[1,5-a]pyrimidine-3-carboxamide]
–	–	18	–	C=CC(=O)N1CCC(C2CCNc3c(C(N)=O)c(-c4cc(Cl)c(C)c(OCC)c4)nn32)CC1 (stereo not drawn) [Example A49, 7-(1-acryloylpiperidin-4-yl)-2-(3-chloro-5-ethoxy-4-methylphenyl)-4,5,6,7-tetrahydropyrazolo[1,5-a]pyrimidine-3-carboxamide]
136	–	–	–	C=CC(=O)N1CCC(C2CCNc3c(C(N)=O)c(-c4cc(OC)c(C=C)c(OC)c4)nn32)CC1 (stereo not drawn) [Example A51, 7-(1-acryloylpiperidin-4-yl)-2-(3,5-dimethoxy-4-vinylphenyl)-4,5,6,7-tetrahydropyrazolo[1,5-a]pyrimidine-3-carboxamide]
–	–	13	–	C=CC(=O)N1CC(C2CCNc3c(C(N)=O)c(-c4cc(Cl)c(C)c(Cl)c4)nn32)C1 (stereo not drawn) [Example B1, 7-(1-acryloylazetidin-3-yl)-2-(3,5-dichloro-4-methylphenyl)-4,5,6,7-tetrahydropyrazolo[1,5-a]pyrimidine-3-carboxamide]
–	–	34	–	C=CC(=O)N1CC2CNc3c(C(N)=O)c(-c4cc(OC)c(OC)c(OC)c4)nn3C2C1 (stereo not drawn) [Example C2, 7-acryloyl-2-(3,4,5-trimethoxyphenyl)-5,5a,6,7,8,8a-hexahydro-4H-pyrazolo[1,5-a]pyrrolo[3,4-e]pyrimidine-3-carboxamide]
–	–	10	–	C=CC(=O)N1CCC2C(CNc3c(C(N)=O)c(-c4cc(OC)c(C)c(OC)c4)nn32)C1 (stereo not drawn) [Example D1, 7-acryloyl-2-(3,5-dimethoxy-4-methylphenyl)-4,5,5a,6,7,8,9,9a-octahydropyrazolo[1,5-a]pyrido[3,4-e]pyrimidine-3-carboxamide]
> 1000	–	63	–	C=CC(=O)N1CCC2Nc3c(C(N)=O)c(-c4cc(OC)c(C)c(OC)c4)nn3CC2C1 (stereo not drawn) [Example D2, 7-acryloyl-2-(3,5-dimethoxy-4-methylphenyl)-4,4a,5,6,7,8,8a,9-octahydropyrazolo[1,5-a]pyrido[4,3-d]pyrimidine-3-carboxamide]
–	–	33	–	C=CC(=O)NCC1CCNc2c(C(N)=O)c(-c3cc(OC)c(C)c(OC)c3)nn21 (stereo not drawn) [Example E1, 7-(acrylamidomethyl)-2-(3,5-dimethoxy-4-methylphenyl)-4,5,6,7-tetrahydropyrazolo[1,5-a]pyrimidine-3-carboxamide]
–	–	> 100	–	C=CC(=O)N1CCC2(CC1)CC(C1CCNc3c(C(N)=O)c(-c4cc(OC)c(C)c(OC)c4)nn31)C2 (stereo not drawn) [Example F1, 7-(7-acryloyl-7-azaspiro[3.5]nonan-2-yl)-2-(3,5-dimethoxy-4-methylphenyl)-4,5,6,7-tetrahydropyrazolo[1,5-a]pyrimidine-3-carboxamide]
–	–	12	–	C=CC(=O)N1CC2CCC(C1)C2C1CCNc2c(C(N)=O)c(-c3cc(OC)c(C)c(OC)c3)nn21 (stereo not drawn) [Example G1, 7-(3-acryloyl-3-azabicyclo[3.2.1]octan-8-yl)-2-(3,5-dimethoxy-4-methylphenyl)-4,5,6,7-tetrahydropyrazolo[1,5-a]pyrimidine-3-carboxamide]
–	–	35	–	C=CC(=O)N1CC2(CC(C3CCNc4c(C(N)=O)c(-c5cc(OC)c(C)c(OC)c5)nn43)C2)C1 (stereo not drawn) [Example H1, 7-(2-acryloyl-2-azaspiro[3.3]heptan-6-yl)-2-(3,5-dimethoxy-4-methylphenyl)-4,5,6,7-tetrahydropyrazolo[1,5-a]pyrimidine-3-carboxamide]
–	–	22	–	C=CC(=O)N1CCC(C2CCNc3c(C(N)=O)c(-c4ccc(Cl)cc4)nn32)CC1 (stereo not drawn) [reference compound]
